Measured values published in patent publication US20110263610A1, “COMPOUNDS AND COMPOSITIONS AS ITPKB INHIBITORS” (IRM LLC, priority 2008, published 2011).

target: T1, ITPKb (Mus musculus, UniProt B2RXC2); experiment: Biochemical measurement of ITPKb activity (Kinase-Glo ATP depletion assay); inhibiting the phosphorylation of IP3 to IP4; parameters: species or system murine; conditions: Table 1; inhibiting the phosphorylation of IP3 to IP4; read-out: IC50
T1 construct: murine ITPKb residues 640-942; MGSDKIHHHHHH (His6 tag from MH4 plasmid) (N); made in house; host or cells: Escherichia coli HK100
T1 sequence (B2RXC2 640-942): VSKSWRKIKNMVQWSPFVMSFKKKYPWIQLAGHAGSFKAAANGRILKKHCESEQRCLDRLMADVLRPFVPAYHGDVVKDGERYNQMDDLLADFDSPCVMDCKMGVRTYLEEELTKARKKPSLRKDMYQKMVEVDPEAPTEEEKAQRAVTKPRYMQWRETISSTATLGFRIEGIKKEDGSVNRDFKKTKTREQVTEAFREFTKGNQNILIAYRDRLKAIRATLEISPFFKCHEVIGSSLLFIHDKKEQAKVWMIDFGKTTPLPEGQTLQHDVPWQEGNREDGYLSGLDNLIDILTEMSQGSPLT
Method: Compounds of the present invention are assayed to measure their capacity to inhibit ITPKb according to the following assays.
The DNA sequence encoding murine ITPKb residues 640-942 is amplified from a full-length construct in mammalian expression vector pKDNZ by PCR. The 3′-primer incorporates a stop codon and an overhanging PacI site. The product is digested with Pad before being ligated into the MH4 plasmid which has been prepared by digestion with PmlI and PacI. Cloning into the MH4 plasmid adds the sequence MGSDKIHHHHHH to the N-terminus of the translated region. Mutant enzymes are made by site-directed mutagenesis using the Stratagene Quikchange kit.
ITPKb is expressed in the HK100 strain of Escherichia coli. Typically, a 4 L batch of cells is grown in LB with […] ampicillin to 0.5 A600 at 30 degrees C., before induction with 0.02% L-arabinose for 6 hours. Cells are harvested by centrifugation, and pellets are resuspended in 50 mL of 50 mM Tris (pH 8), 100 mM NaCl, 1 mM TCEP, and 0.1 mg/mL lysozyme, with 1 Complete protease inhibitor tablet (Roche). Cells are disrupted by sonication, and debris is removed by centrifugation for 40 minutes at 35000 g.
Initial purification is performed using three nickel-Sepharose Hi-Trap HP 1 mL columns (Amersham) connected in series. After application of the pellet supernatants, the bound material is washed with 20 mM Tris (pH 8.0), 20 mM imidazole, 10% glycerol (v/v), and 1 mM TCEP before elution with an imidazole gradient up to 200 mM.
Fractions containing ITPKb are identified by SDS-PAGE, and the pure fractions are concentrated and buffer exchanged using centriprep 20 15 kDa columns into 20 mM Tris (pH 8), 200 mM KCl, 5 mM MgCl2, 0.5 mM DTT, 10% glycerol, 1 μM IP3, and 20 μM ATP to a final protein concentration of 7 mg/mL.
ITPKb activity is determined using the Kinase-Glo (Promega) ATP depletion assay. The assay reaction buffer consists of 50 mM Tris (pH 8.0), 100 mM NaCl, 1 mM DTT, 10% glycerol, 5 mM MgCl2, 1 μM ATP, and 10 μM IP3 (Alexis Biochemicals). 50 nl of inhibitor is then added to each 40 μL reaction followed by a 10 μL addition of purified ITPKb (final concentration of 60 nM). The reaction mixture is incubated for 60 minutes at room temperature and stopped by the addition of an equal volume of kinase-glo reagent (Promega). Luminescence is measured using a Molecular Devices Acquest instrument.

Q: For `C[C@@H]1CN(Cc2c[nH]nc2-c2ccc3cnccc3c2)CCN1c1ccc(C(F)(F)F)cn1` [Example 20], which IC50 is on record?
A: 11 nM

Q: How did the IC50 turn out when `C[C@@H]1CN(Cc2c[nH]nc2-c2ccc(C(N)=O)o2)CCN1c1ccc(C(F)(F)F)cn1` [Example 39] was run?
A: 8 nM

Q: How did the IC50 turn out when `C[C@@H]1CN(Cc2c[nH]nc2C2=CCN(C(=O)CCO)CC2)CCN1c1ccc(C(F)(F)F)cn1` [Example 54] was run?
A: 80 nM

Q: Which IC50 does the source give for `C[C@@H]1CN(Cc2c[nH]nc2/C=C2\NC(=N)NC2=O)CCN1c1ccc(C(F)(F)F)cn1` [Example 50] here?
A: 99 nM

Q: How did the IC50 turn out when `C[C@@H]1CN(Cc2c[nH]nc2-c2c[nH]c3ncccc23)CCN1c1ccc(C(F)(F)F)cn1` [Example 44] was run?
A: 182 nM

Q: How did the IC50 turn out when `C[C@@H]1CN(Cc2c[nH]nc2-c2nc3cc(F)ccc3[nH]2)CCN1c1ccc(C(F)(F)F)cn1` [Example 27] was run?
A: 9800 nM

Q: `N#Cc1c[nH]c(-c2n[nH]cc2CN2CCN(c3ccc(C(F)(F)F)cn3)[C@H](C(F)(F)F)C2)c1` [Example 29] was tested. Which IC50 did it give?
A: 9 nM

Q: `CC(=O)N1CC=C(c2n[nH]cc2CN2CCN(c3ccc(C(F)(F)F)cn3)[C@H](C)C2)CC1` [Example 47] was tested. Which IC50 did it give?
A: 66 nM

Q: Which IC50 does the source give for `C[C@@H]1CN(Cc2c[nH]nc2-c2cc(C(=O)NCCO)c[nH]2)CCN1c1ccc(C(F)(F)F)cn1` [Example 42] here?
A: 14 nM

Q: For `C[C@@H]1CN(Cc2c[nH]nc2-c2ccc(C#N)c(=O)[nH]2)CCN1c1ccc(C(F)(F)F)cn1` [Example 21], which IC50 is on record?
A: 49 nM

Q: With `C[C@@H]1CN(Cc2c[nH]nc2C2CCN(C=O)CC2)CCN1c1ccc(C(F)(F)F)cn1` [Example 49] as the compound, how does the IC50 read?
A: 241 nM

Q: Which IC50 does the source give for `Cc1cc(NC(=O)c2n[nH]cc2CN2CCN(c3ccc(C(F)(F)F)cn3)[C@H](C)C2)n(CCN(C)C)n1` [Example 32] here?
A: 6190 nM

Q: How did the IC50 turn out when `C[C@@H]1CN(Cc2c[nH]nc2-c2cc(C(=O)N(C)C)c[nH]2)CCN1c1ccc(C(F)(F)F)cn1` [Example 41] was run?
A: 85 nM

Q: How did the IC50 turn out when `FC(F)(F)c1ccc(N2CCN(Cc3c[nH]nc3-c3cccs3)CC2)nc1` [Example 22] was run?
A: 4320 nM

Q: With `C[C@@H]1CN(Cc2c[nH]nc2-c2ccnc3[nH]ccc23)CCN1c1ccc(C(F)(F)F)cn1` [Example 40] as the compound, how does the IC50 read?
A: 478 nM

Q: With `C[C@@H]1CN(Cc2c[nH]nc2C(=O)N2CCC(O)CC2)CCN1c1ccc(C(F)(F)F)cn1` [Example 36] as the compound, how does the IC50 read?
A: > 10000 nM

Q: With `C[C@@H]1CN(Cc2c[nH]nc2C(=O)N2CC(O)C2)CCN1c1ccc(C(F)(F)F)cn1` [Example 34] as the compound, how does the IC50 read?
A: > 10000 nM

Q: How did the IC50 turn out when `COC(=O)c1ccc(-c2n[nH]cc2CN2CCN(c3ccc(C(F)(F)F)cn3)[C@H](C)C2)o1` [Example 37] was run?
A: 984 nM

Q: `NC(=O)c1c[nH]c(-c2n[nH]cc2CN2CCN(c3ccc(C(F)(F)F)cn3)[C@H](C(F)(F)F)C2)c1` [Example 51] was tested. Which IC50 did it give?
A: 2 nM

Q: How did the IC50 turn out when `C[C@@H]1CN(Cc2c[nH]nc2-c2ccc(C(=O)O)o2)CCN1c1ccc(C(F)(F)F)cn1` [Example 38] was run?
A: 435 nM

Q: With `CC(O)CNC(=O)c1c[nH]c(-c2n[nH]cc2CN2CCN(c3ccc(C(F)(F)F)cn3)[C@H](C)C2)c1` (stereo partly drawn) [Example 43] as the compound, how does the IC50 read?
A: 14 nM

Q: With `C[C@@H]1CN(Cc2c[nH]nc2-c2cc(C(=O)O)co2)CCN1c1ccc(C(F)(F)F)cn1` [Example 52] as the compound, how does the IC50 read?
A: 1040 nM

Q: For `C[C@@H]1CN(Cc2c[nH]nc2C(=O)N2CCC(O)C2)CCN1c1ccc(C(F)(F)F)cn1` (stereo partly drawn) [Example 35], which IC50 is on record?
A: > 10000 nM

same assay, conditions: Table 2; inhibiting the phosphorylation of IP3 to IP4; read-out: IC50

Q: Which IC50 does the source give for `C[C@@H]1CN(Cc2n[nH]nc2-c2ccc(C#N)cc2)CCN1c1ccc(C(F)(F)F)cc1` [Example 19, (R)-4-(5-((3-methyl-4-(4-(trifluoromethyl)phenyl)piperazin-1-yl)methyl)-2H-1,2,3-triazol-4-yl)benzonitrile] here?
A: 40 nM

Q: For `C[C@@H]1CN(Cc2c[nH]nc2-c2nc(C(=N)N)c[nH]2)CCN1c1ccc(C(F)(F)F)cn1` [Example 12, (R)-2-(4-((3-methyl-4-(5-(trifluoromethyl)pyridin-2-yl)piperazin-1-yl)methyl)-1H-pyrazol-3-yl)-1H-imidazole-4-carboximidamide], which IC50 is on record?
A: 475 nM

Q: With `C[C@@H]1CN(Cc2c[nH]nc2-c2nc(C(F)(F)F)c[nH]2)CCN1c1ccc(C(F)(F)F)cn1` [Example 11, (R)-2-methyl-4-((3-(4-(trifluoromethyl)-1H-imidazol-2-yl)-1H-pyrazol-4-yl)methyl)-1-(5-(trifluoromethyl)pyridin-2-yl)piperazine] as the compound, how does the IC50 read?
A: 1480 nM

Q: With `C[C@@H]1CN(Cc2c[nH]nc2C=C2NC(=O)NC2=O)CCN1c1ccc(C(F)(F)F)cn1` [Example 17, R-5-((4-((3-methyl-4-(5-(trifluoromethyl)pyridin-2-yl)piperazin-1-yl)methyl)-1H-pyrazol-3-yl)methylene)imidazolidine-2,4-dione] as the compound, how does the IC50 read?
A: 531 nM

Q: Which IC50 does the source give for `C[C@@H]1CN(Cc2c[nH]nc2-c2nc(-c3ccccc3)c[nH]2)CCN1c1ccc(C(F)(F)F)cn1` [Example 15, (R)-2-methyl-4-((3-(4-phenyl-1H-imidazol-2-yl)-1H-pyrazol-4-yl)methyl)-1-(5-(trifluoromethyl)pyridin-2-yl)piperazine] here?
A: 1230 nM

Q: How did the IC50 turn out when `C[C@@H]1CN(Cc2c[nH]nc2-c2cc3ccccc3[nH]2)CCN1c1ccc(C(F)(F)F)cn1` [Example 8, (R)-2-(4-((3-methyl-4-(5-(trifluoromethyl)pyridin-2-yl)piperazin-1-yl)methyl)-1H-pyrazol-3-yl)-1H-indole] was run?
A: 192 nM

Q: `C[C@@H]1CN(Cc2c[nH]nc2C2=CCN(C=O)CC2)CCN1c1ccc(C(F)(F)F)cn1` [Example 10, (R)-4-(4-((3-methyl-4-(5-(trifluoromethyl)pyridin-2-yl)piperazin-1-yl)methyl)-1H-pyrazol-3-yl)-5,6-dihydropyridine-1(2H)-carbaldehyde] was tested. Which IC50 did it give?
A: 10 nM

same assay, conditions: read-out: IC50 in inhibiting the phosphorylation of IP3 to IP4

Q: `C[C@@H]1CN(Cc2c[nH]nc2-c2cc(C#N)c[nH]2)CCN1c1ccc(C(F)(F)F)cn1` [Example 1, (R)-5-(4-((3-methyl-4-(5-(trifluoromethyl)pyridin-2-yl)piperazin-1-yl)methyl)-1H-pyrazol-3-yl)-1H-pyrrole-3-carbonitrile] was tested. Which IC50 did it give?
A: 9 nM

Q: `C[C@@H]1CN(Cc2c[nH]nc2-c2c[nH]c(C(N)=O)c2)CCN1c1ccc(C(F)(F)F)cn1` [Example 7, (R)-4-(4-((3-methyl-4-(5-(trifluoromethyl)pyridin-2-yl)piperazin-1-yl)methyl)-1H-pyrazol-3-yl)-1H-pyrrole-2-carboxamide] was tested. Which IC50 did it give?
A: 2 nM

Q: For `CNC(=O)c1c[nH]c(-c2n[nH]cc2CN2CCN(c3ccc(C(F)(F)F)cn3)[C@H](C)C2)c1` [Example 3, (R)—N-methyl-5-(4-((3-methyl-4-(5-(trifluoromethyl)pyridin-2-yl)piperazin-1-yl)methyl)-1H-pyrazol-3-yl)-1H-pyrrole-3-carboxamide], which IC50 is on record?
A: 11 nM

Q: How did the IC50 turn out when `C[C@@H]1CN(Cc2c[nH]nc2-c2c[nH]c(C#N)c2)CCN1c1ccc(C(F)(F)F)cn1` [Example 6, (R)-4-(4-((3-methyl-4-(5-(trifluoromethyl)pyridin-2-yl)piperazin-1-yl)methyl)-1H-pyrazol-3-yl)-1H-pyrrole-2-carbonitrile] was run?
A: 6 nM

Q: `C[C@@H]1CN(Cc2c[nH]nc2-c2ccc(C#N)[nH]2)CCN1c1ccc(C(F)(F)F)cn1` [Example 4, (R)-5-(4-((3-methyl-4-(5-(trifluoromethyl)pyridin-2-yl)piperazin-1-yl)methyl)-1H-pyrazol-3-yl)-1H-pyrrole-2-carbonitrile] was tested. Which IC50 did it give?
A: 81 nM

Q: How did the IC50 turn out when `C[C@@H]1CN(Cc2c[nH]nc2-c2cc(C(N)=O)c[nH]2)CCN1c1ccc(C(F)(F)F)cn1` [Example 2, (R)-5-(4-((3-methyl-4-(5-(trifluoromethyl)pyridin-2-yl)piperazin-1-yl)methyl)-1H-pyrazol-3-yl)-1H-pyrrole-3-carboxamide] was run?
A: 3 nM
